{"source": "ChEMBL document CHEMBL1201862", "about": "“PubChem BioAssay data set” (2004)", "key": {"BJ [1]": {"system": "BJ", "test": "cytotoxicity toward BJ-TERT fibroblasts, dose response, cell-based, RAS-independent, luminescence (AID 1933)", "assay_type": "functional", "details": "Homo sapiens"}, "BJ [2]": {"system": "BJ", "test": "cells", "assay_type": "functional, cell-based", "details": "Homo sapiens"}, "BJ [3]": {"system": "BJ", "test": "cytotoxicity toward BJ-TERT-LT-ST fibroblasts, dose response, cell-based, RAS-independent, luminescence (AID 1935);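 also: BJ fibroblasts immortalized with TERT plus LT and ST oncogenes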", "assay_type": "functional", "details": "Homo sapiens"}, "[4]": {"test": "cytotoxicity toward DRD oncogenic fibroblasts, dose response, cell-based, non-viral oncogenic, luminescence (AID 1934)", "assay_type": "functional", "details": "Homo sapiens"}, "[5]": {"target": "T1, Carboxy-terminal domain RNA polymerase II polypeptide A small phosphatase 1 (Homo sapiens, UniProt Q9GZU7)", "T1 sequence (Q9GZU7 whole entry)": "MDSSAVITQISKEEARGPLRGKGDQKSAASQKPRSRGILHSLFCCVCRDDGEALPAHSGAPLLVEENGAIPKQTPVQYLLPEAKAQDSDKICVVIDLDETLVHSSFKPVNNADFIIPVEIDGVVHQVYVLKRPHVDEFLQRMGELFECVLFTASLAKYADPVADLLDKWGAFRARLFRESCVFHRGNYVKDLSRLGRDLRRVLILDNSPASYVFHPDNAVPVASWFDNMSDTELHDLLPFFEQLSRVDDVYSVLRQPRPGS", "test": "inhibitors of CTDSP1, concentration-response testing, biochemical assay, absorbance-based, actives from ultra-high-throughput screening (AID 540297)", "assay_type": "functional"}, "[6]": {"test": "HepG2 cell cytotoxicity, dose response, cytotoxicity control for Shn3 inhibitor project, CellTiter-Glo, cherry-picked (AID 624134)", "assay_type": "functional, cell-based"}, "[7]": {"test": "cytotoxicity toward NIH3T3 fibroblasts, dose response, counter-screen, cell-based, ATP luminescence, mouse fibroblasts (AID 2010);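 also: cells exposed to compound for about 90 hours before reading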", "assay_type": "functional"}, "[8]": {"test": "control 3'UTR Renilla luciferase suppression, dose response, counter-screen for Shn3 inhibitor project, cell-based, Clone20-Shn3RL, cherry-picked (AID 624133)", "assay_type": "functional"}, "[9]": {"test": "Luminescence Cell-Based Dose Retest to Confirm Inhibitors of Cancer Stem Cells. [Related pubchem assays (depositor defined):AID2717, AID2721]", "assay_type": "functional", "details": "Homo sapiens"}, "[10]": {"test": "inhibitors of intracellular T. cruzi replication, confirmation, NIH3T3 host cells, beta-gal luminescence (AID 2044);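 also: luminescent beta-galactosidase reporter signal from transgenic T. cruzi replicating inside host cells; inhibitors lower the luminescence signal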", "assay_type": "functional, cell-based"}, "[11]": {"test": "Shn3 3'UTR reporter inhibitors, dose response, cell-based, Clone20 osteoblasts, firefly luciferase, cherry-picked (AID 624132)", "assay_type": "functional"}, "P388/ADR": {"system": "P388/ADR", "test": "cells", "assay_type": "functional"}, "SN12K1": {"system": "SN12K1", "test": "cells", "assay_type": "functional"}, "P388": {"system": "P388", "test": "cells", "assay_type": "functional"}, "[12]": {"target": "T2, Histone-lysine N-methyltransferase NSD2 (Homo sapiens, UniProt O96028)", "T2 sequence (O96028 whole entry)": "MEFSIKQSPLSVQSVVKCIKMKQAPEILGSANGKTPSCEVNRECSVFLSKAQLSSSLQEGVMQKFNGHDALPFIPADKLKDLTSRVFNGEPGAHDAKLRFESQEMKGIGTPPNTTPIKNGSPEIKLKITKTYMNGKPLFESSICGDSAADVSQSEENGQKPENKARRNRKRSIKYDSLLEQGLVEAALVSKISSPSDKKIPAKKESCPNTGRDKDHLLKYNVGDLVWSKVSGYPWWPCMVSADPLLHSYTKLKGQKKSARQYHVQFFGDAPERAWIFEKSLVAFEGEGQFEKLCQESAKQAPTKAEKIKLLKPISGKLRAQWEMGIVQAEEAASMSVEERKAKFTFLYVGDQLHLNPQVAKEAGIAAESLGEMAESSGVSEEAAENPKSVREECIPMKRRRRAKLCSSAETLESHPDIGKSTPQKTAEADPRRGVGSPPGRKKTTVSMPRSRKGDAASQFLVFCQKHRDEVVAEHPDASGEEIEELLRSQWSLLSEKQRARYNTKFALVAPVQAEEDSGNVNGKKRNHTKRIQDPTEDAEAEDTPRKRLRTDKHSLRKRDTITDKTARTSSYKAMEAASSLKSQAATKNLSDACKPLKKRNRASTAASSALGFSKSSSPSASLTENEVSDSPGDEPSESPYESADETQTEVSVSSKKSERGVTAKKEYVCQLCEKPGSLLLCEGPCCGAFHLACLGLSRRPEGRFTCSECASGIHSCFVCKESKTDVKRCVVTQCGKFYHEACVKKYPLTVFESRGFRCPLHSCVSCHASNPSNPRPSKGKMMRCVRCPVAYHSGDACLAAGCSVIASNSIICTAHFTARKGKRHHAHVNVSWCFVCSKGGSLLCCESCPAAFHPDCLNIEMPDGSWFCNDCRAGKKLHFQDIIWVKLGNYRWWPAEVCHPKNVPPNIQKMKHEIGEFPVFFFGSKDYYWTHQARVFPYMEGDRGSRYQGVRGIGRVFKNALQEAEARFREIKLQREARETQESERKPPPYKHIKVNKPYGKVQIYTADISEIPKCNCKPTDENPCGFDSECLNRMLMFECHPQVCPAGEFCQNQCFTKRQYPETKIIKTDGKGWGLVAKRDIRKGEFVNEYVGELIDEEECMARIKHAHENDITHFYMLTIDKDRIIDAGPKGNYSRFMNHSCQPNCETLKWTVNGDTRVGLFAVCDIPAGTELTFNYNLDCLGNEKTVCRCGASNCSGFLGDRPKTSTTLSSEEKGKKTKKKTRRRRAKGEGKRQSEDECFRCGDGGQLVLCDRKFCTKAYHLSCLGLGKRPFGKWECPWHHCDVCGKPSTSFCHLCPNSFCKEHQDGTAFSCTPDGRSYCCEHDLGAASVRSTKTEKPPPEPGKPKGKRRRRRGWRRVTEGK", "assay_type": "biochemical"}, "[13]": {"target": "T3, Rac GTPase-activating protein 1 (Homo sapiens, UniProt Q9H0H5)", "T3 sequence (Q9H0H5 whole entry)": "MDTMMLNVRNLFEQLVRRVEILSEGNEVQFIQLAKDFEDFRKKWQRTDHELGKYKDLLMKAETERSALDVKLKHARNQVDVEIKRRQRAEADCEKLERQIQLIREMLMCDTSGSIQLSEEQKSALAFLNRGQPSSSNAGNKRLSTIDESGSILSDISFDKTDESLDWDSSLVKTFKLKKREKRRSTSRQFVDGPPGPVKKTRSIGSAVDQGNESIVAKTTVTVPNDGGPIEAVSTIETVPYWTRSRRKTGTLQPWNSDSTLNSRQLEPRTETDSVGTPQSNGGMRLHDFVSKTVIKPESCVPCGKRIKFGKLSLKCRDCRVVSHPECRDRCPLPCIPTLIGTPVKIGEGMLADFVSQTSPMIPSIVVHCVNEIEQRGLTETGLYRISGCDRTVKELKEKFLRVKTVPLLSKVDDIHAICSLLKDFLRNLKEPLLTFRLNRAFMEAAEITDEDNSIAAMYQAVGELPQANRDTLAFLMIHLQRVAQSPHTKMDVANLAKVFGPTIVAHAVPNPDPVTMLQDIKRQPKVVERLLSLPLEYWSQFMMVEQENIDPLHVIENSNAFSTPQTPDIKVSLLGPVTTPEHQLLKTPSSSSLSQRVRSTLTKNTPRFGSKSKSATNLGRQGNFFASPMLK", "test": "MgcRacGAP GTPase-activating activity inhibitors, confirmation, biochemical, ADP Hunter fluorescence, primary and confirmatory (AID 624330)", "assay_type": "functional"}, "[14]": {"test": "Luminescence Cell-Based Dose Confirmation HTS to Identify Inhibitors of Platelet Dense Granule Release. [Related pubchem assays: 1663 (Primary HTS), 1678 (Summary of Project)]", "assay_type": "functional"}, "[15]": {"target": "Luciferin 4-monooxygenase (Photinus pyralis, UniProt P08659)", "sequence (P08659 whole entry)": "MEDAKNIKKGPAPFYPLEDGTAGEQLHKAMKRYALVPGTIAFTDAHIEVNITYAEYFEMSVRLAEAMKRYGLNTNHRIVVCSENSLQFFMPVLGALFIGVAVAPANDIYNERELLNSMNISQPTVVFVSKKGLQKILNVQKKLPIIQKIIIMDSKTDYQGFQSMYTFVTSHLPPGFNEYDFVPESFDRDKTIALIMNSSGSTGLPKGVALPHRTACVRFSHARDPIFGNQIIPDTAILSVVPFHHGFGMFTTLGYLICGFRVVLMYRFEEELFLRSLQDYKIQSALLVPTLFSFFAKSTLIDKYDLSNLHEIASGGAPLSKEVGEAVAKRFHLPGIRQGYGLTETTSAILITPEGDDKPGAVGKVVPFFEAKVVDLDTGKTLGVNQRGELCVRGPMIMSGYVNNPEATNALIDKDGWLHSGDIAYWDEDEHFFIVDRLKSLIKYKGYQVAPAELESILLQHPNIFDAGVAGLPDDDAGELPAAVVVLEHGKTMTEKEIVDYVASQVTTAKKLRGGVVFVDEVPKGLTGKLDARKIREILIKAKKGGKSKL", "test": "firefly luciferase enzyme inhibitors, dose response, biochemical, luminescence (AID 1891)"}}, "note": "The source made the active and inactive calls.", "data": [{"smiles": "CC(=O)c1cccc(Nc2c3c(nc4ccccc24)CCC3)c1", "values": [{"measurement": "EC50", "setting": "BJ [1]", "result": "2.21 µM (active)"}, {"measurement": "EC50", "setting": "BJ [2]", "result": "30.6 µM (inconclusive)"}, {"measurement": "EC50", "setting": "BJ [3]", "result": "1.11 µM (active)"}, {"measurement": "EC50", "setting": "[4]", "result": "0.898 µM (active)"}]}, {"smiles": "O=C(Nc1nc2ccccc2s1)C1CCN(S(=O)(=O)c2cc([N+](=O)[O-])ccc2Cl)CC1", "values": [{"measurement": "IC50", "setting": "[5]", "result": "3.28 µM (active)"}, {"measurement": "AC50", "setting": "[6]", "result": "50.7 µM (active)"}, {"measurement": "EC50", "setting": "[7]", "result": "> 60 µM (not active)"}, {"measurement": "AC50", "setting": "[8]", "result": "2.18 µM (active)"}, {"measurement": "AC50", "setting": "[9]", "result": "25 µM (active)"}, {"measurement": "EC50", "setting": "[10]", "result": "713 nM (active)"}, {"measurement": "AC50", "setting": "[11]", "result": "3.07 µM (active)"}]}, {"smiles": "COc1ccc(C(=O)NCC(=O)Nc2ccc(-c3ccccc3)cc2)cc1", "values": [{"measurement": "IC50", "setting": "[5]", "result": "5.62 µM (active)"}]}, {"smiles": "CCOC(=O)NC(=O)c1cn(CCN(CCO)C(=O)NCCCCCCNC(=O)N(CCO)CCn2cc(C(=O)NC(=O)OCC)c(=O)[nH]c2=O)c(=O)[nH]c1=O", "values": [{"measurement": "GI50", "setting": "P388/ADR; Mus musculus, P388/ADR", "result": "> 100 µM (inactive)"}, {"measurement": "GI50", "setting": "SN12K1; Homo sapiens, SN12K1", "result": "> 100 µM (inactive)"}, {"measurement": "GI50", "setting": "P388; Mus musculus, P388", "result": "> 100 µM (inactive)"}]}, {"smiles": "Cc1c2cc[n+](C)cc2c(C)c2c1[nH]c1ccccc12", "values": [{"measurement": "GI50", "setting": "P388/ADR", "result": "70 µM (inactive)"}, {"measurement": "GI50", "setting": "SN12K1", "result": "0.385 µM (active)"}, {"measurement": "GI50", "setting": "P388", "result": "1.12 µM (inactive)"}]}, {"smiles": "COc1cccc2cc(-c3cc(=O)oc4cc(C)c(O)cc34)oc12", "values": [{"measurement": "IC50", "setting": "[5]", "result": "9.12 µM (active)"}]}, {"smiles": "CCCCCCc1ccc(O)cc1O", "note": "[HEXYLRESORCINOL]", "values": [{"measurement": "GI50", "setting": "P388/ADR; Mus musculus, P388/ADR", "result": "45.2 µM (inactive)"}, {"measurement": "GI50", "setting": "SN12K1; Homo sapiens, SN12K1", "result": "37.5 µM (inactive)"}, {"measurement": "EC50", "setting": "[7]", "result": "> 30 µM (not active)"}, {"measurement": "EC50", "setting": "[10]", "result": "781 nM (active)"}, {"measurement": "GI50", "setting": "P388; Mus musculus, P388", "result": "48.4 µM (inactive)"}]}, {"smiles": "CNCCNc1ccc2c3c(nn2CCNCCO)-c2c(O)ccc(O)c2C(=O)c13", "values": [{"measurement": "GI50", "setting": "P388/ADR; Mus musculus, P388/ADR", "result": "0.216 µM (active)"}, {"measurement": "GI50", "setting": "SN12K1; Homo sapiens, SN12K1", "result": "0.0673 µM (active)"}, {"measurement": "GI50", "setting": "P388; Mus musculus, P388", "result": "0.000867 µM (active)"}]}, {"smiles": "CCOc1ccccc1N1CCN(C/C=C/c2ccc(N(C)C)cc2)CC1", "values": [{"measurement": "AC50", "setting": "[12]", "result": "15.5 µM (active)"}, {"measurement": "IC50", "setting": "[13]", "result": "75.8 µM (active)"}]}, {"smiles": "C/C(=N/N=C/c1ccc(N(C)C)cc1)c1ccccc1", "values": [{"measurement": "EC50", "setting": "BJ [1]", "result": "26.5 µM (active)"}, {"measurement": "EC50", "setting": "BJ [2]", "result": "13.5 µM (active)"}, {"measurement": "EC50", "setting": "BJ [3]", "result": "> 150 µM (not active)"}, {"measurement": "EC50", "setting": "[14]", "result": "1.61 µM (active)"}, {"measurement": "EC50", "setting": "[4]", "result": "17.1 µM (active)"}, {"measurement": "EC50", "setting": "[15]", "result": "875 nM (active)"}]}, {"smiles": "CCn1cc(C(=O)NCc2ccco2)c(=O)c2cc(F)c(N3CCN(C(=O)c4ccco4)CC3)cc21", "values": [{"measurement": "IC50", "setting": "[5]", "result": "17.6 µM (active)"}]}]}
